# Experimental data as given in ChEMBL document CHEMBL3817822, “Design and synthesis of pyridine-pyrazole-sulfonate derivatives as potential anti-HBV agents” (Medchemcomm, 2016).
# Test system: not listed separately
# Assay: Selectivity index, ratio of TC50 for human HepG2(2.2.15) cells to IC50 for HBV infected in human HepG2(2.2.15) cells assessed as inhibition of HBsAg secretion
# Settings: not given
row,SMILES,Selectivity Index
1,CS(=O)(=O)Oc1cc(CSc2ccccn2)[nH]n1,5.17
2,O=c1cc(CSc2ccccn2)[nH][nH]1,1.37
3,O=S(=O)(Oc1cc(CSc2ccccn2)[nH]n1)c1ccccc1,0.68
4,O=S(=O)(Oc1cc(CSc2ccccn2)[nH]n1)c1ccc(Br)cc1,0.46
5,COc1ccc(S(=O)(=O)Oc2cc(-c3ccccn3)[nH]n2)cc1,5.69
6,O=[N+]([O-])c1ccccc1S(=O)(=O)Oc1cc(CSc2ccccn2)[nH]n1,10.6
7,Cc1ccc(S(=O)(=O)Oc2cc(CSc3ccccn3)[nH]n2)cc1,4.36
8,O=S(=O)(Oc1cc(CSc2ccccn2)[nH]n1)c1ccc(F)cc1,4.44
9,O=c1cc(-c2ccccn2)[nH][nH]1,0.77

# Test system: Hepatitis B virus
# Assay: Antiviral activity against HBV infected in human HepG2(2.2.15) cells assessed as inhibition of HBeAg secretion by enzyme immunoassay
# Type: functional, organism-based
# Settings: not given
row,SMILES,IC50 [µM]
1,CS(=O)(=O)Oc1cc(CSc2ccccn2)[nH]n1,679
2,O=c1cc(CSc2ccccn2)[nH][nH]1,590
3,COc1ccc(S(=O)(=O)Oc2cc(-c3ccccn3)[nH]n2)cc1,23.1
4,O=S(=O)(Oc1cc(CSc2ccccn2)[nH]n1)c1ccc(F)cc1,250
5,O=c1cc(-c2ccccn2)[nH][nH]1,1370

# These reach a lower IC50. Values come first.
row,IC50 [µM],SMILES
1,20.3,O=S(=O)(Oc1cc(CSc2ccccn2)[nH]n1)c1ccccc1
2,9.2,O=S(=O)(Oc1cc(CSc2ccccn2)[nH]n1)c1ccc(Br)cc1
3,9.92,O=[N+]([O-])c1ccccc1S(=O)(=O)Oc1cc(CSc2ccccn2)[nH]n1
4,19.4,Cc1ccc(S(=O)(=O)Oc2cc(CSc3ccccn3)[nH]n2)cc1

# Test system: not listed separately
# Assay: Cytotoxicity against human HepG2(2.2.15) cells assessed as reduction in cell viability after 72 hrs by MTS assay
# Type: cell-based
# Settings: HepG2(2.2.15) cells, read-out: TC50
row,SMILES,CC50 at 72 h [µM]
1,CS(=O)(=O)Oc1cc(CSc2ccccn2)[nH]n1,830
2,O=c1cc(CSc2ccccn2)[nH][nH]1,1120
3,O=S(=O)(Oc1cc(CSc2ccccn2)[nH]n1)c1ccccc1,103
4,O=S(=O)(Oc1cc(CSc2ccccn2)[nH]n1)c1ccc(Br)cc1,52.4
5,COc1ccc(S(=O)(=O)Oc2cc(-c3ccccn3)[nH]n2)cc1,87.5
6,O=[N+]([O-])c1ccccc1S(=O)(=O)Oc1cc(CSc2ccccn2)[nH]n1,66.2
7,Cc1ccc(S(=O)(=O)Oc2cc(CSc3ccccn3)[nH]n2)cc1,86.4
8,O=S(=O)(Oc1cc(CSc2ccccn2)[nH]n1)c1ccc(F)cc1,116
9,O=c1cc(-c2ccccn2)[nH][nH]1,1060

# Same assay, conditions: hepg2 2.2.15, 72 h
row,SMILES,Activity
1,CS(=O)(=O)Oc1cc(CSc2ccccn2)[nH]n1,Dose-dependent effect
2,O=c1cc(CSc2ccccn2)[nH][nH]1,Dose-dependent effect
3,O=S(=O)(Oc1cc(CSc2ccccn2)[nH]n1)c1ccccc1,Dose-dependent effect
4,O=S(=O)(Oc1cc(CSc2ccccn2)[nH]n1)c1ccc(Br)cc1,Dose-dependent effect
5,COc1ccc(S(=O)(=O)Oc2cc(-c3ccccn3)[nH]n2)cc1,Dose-dependent effect
6,O=[N+]([O-])c1ccccc1S(=O)(=O)Oc1cc(CSc2ccccn2)[nH]n1,Dose-dependent effect
7,Cc1ccc(S(=O)(=O)Oc2cc(CSc3ccccn3)[nH]n2)cc1,Dose-dependent effect
8,O=S(=O)(Oc1cc(CSc2ccccn2)[nH]n1)c1ccc(F)cc1,Dose-dependent effect
9,O=c1cc(-c2ccccn2)[nH][nH]1,Dose-dependent effect

# Test system: not listed separately
# Assay: Selectivity index, ratio of TC50 for human HepG2(2.2.15) cells to IC50 for HBV infected in human HepG2(2.2.15) cells assessed as inhibition of viral DNA replication
# Settings: not given
row,SMILES,Selectivity Index
1,CS(=O)(=O)Oc1cc(CSc2ccccn2)[nH]n1,1.12
2,O=c1cc(CSc2ccccn2)[nH][nH]1,2.13
3,O=S(=O)(Oc1cc(CSc2ccccn2)[nH]n1)c1ccccc1,5.46
4,O=S(=O)(Oc1cc(CSc2ccccn2)[nH]n1)c1ccc(Br)cc1,8.63
5,COc1ccc(S(=O)(=O)Oc2cc(-c3ccccn3)[nH]n2)cc1,3.95
6,O=[N+]([O-])c1ccccc1S(=O)(=O)Oc1cc(CSc2ccccn2)[nH]n1,10.51
7,Cc1ccc(S(=O)(=O)Oc2cc(CSc3ccccn3)[nH]n2)cc1,6.04
8,O=S(=O)(Oc1cc(CSc2ccccn2)[nH]n1)c1ccc(F)cc1,0.59
9,O=c1cc(-c2ccccn2)[nH][nH]1,0.79

# Test system: Hepatitis B virus
# Assay: Antiviral activity against HBV infected in human HepG2(2.2.15) cells assessed as inhibition of viral DNA replication after 48 hrs by SYBR Green based RT-PCR method
# Type: functional, organism-based
# Settings: HepG2 2.2.15, 48 h
row,SMILES,IC50 [µM]
1,CS(=O)(=O)Oc1cc(CSc2ccccn2)[nH]n1,739
2,O=c1cc(CSc2ccccn2)[nH][nH]1,524
3,COc1ccc(S(=O)(=O)Oc2cc(-c3ccccn3)[nH]n2)cc1,22.2
4,O=S(=O)(Oc1cc(CSc2ccccn2)[nH]n1)c1ccc(F)cc1,197
5,O=c1cc(-c2ccccn2)[nH][nH]1,1350

# More lines, now with the values ahead:
row,IC50 [µM],SMILES
1,18.9,O=S(=O)(Oc1cc(CSc2ccccn2)[nH]n1)c1ccccc1
2,6.07,O=S(=O)(Oc1cc(CSc2ccccn2)[nH]n1)c1ccc(Br)cc1
3,6.3,O=[N+]([O-])c1ccccc1S(=O)(=O)Oc1cc(CSc2ccccn2)[nH]n1
4,14.3,Cc1ccc(S(=O)(=O)Oc2cc(CSc3ccccn3)[nH]n2)cc1

# Test system: not listed separately
# Assay: Selectivity index, ratio of TC50 for human HepG2(2.2.15) cells to IC50 for HBV infected in human HepG2(2.2.15) cells assessed as inhibition of HBeAg secretion
# Settings: not given
row,SMILES,Selectivity Index
1,CS(=O)(=O)Oc1cc(CSc2ccccn2)[nH]n1,1.22
2,O=c1cc(CSc2ccccn2)[nH][nH]1,1.89
3,O=S(=O)(Oc1cc(CSc2ccccn2)[nH]n1)c1ccccc1,5.09
4,O=S(=O)(Oc1cc(CSc2ccccn2)[nH]n1)c1ccc(Br)cc1,5.69
5,COc1ccc(S(=O)(=O)Oc2cc(-c3ccccn3)[nH]n2)cc1,3.79
6,O=[N+]([O-])c1ccccc1S(=O)(=O)Oc1cc(CSc2ccccn2)[nH]n1,6.68
7,Cc1ccc(S(=O)(=O)Oc2cc(CSc3ccccn3)[nH]n2)cc1,4.45
8,O=S(=O)(Oc1cc(CSc2ccccn2)[nH]n1)c1ccc(F)cc1,0.46
9,O=c1cc(-c2ccccn2)[nH][nH]1,0.78

# Test system: Hepatitis B virus
# Assay: Antiviral activity against HBV infected in human HepG2(2.2.15) cells assessed as inhibition of HBsAg secretion by enzyme immunoassay
# Type: functional, organism-based
# Settings: not given
row,SMILES,IC50 [µM]
1,CS(=O)(=O)Oc1cc(CSc2ccccn2)[nH]n1,161
2,O=c1cc(CSc2ccccn2)[nH][nH]1,815
3,COc1ccc(S(=O)(=O)Oc2cc(-c3ccccn3)[nH]n2)cc1,15.4
4,O=S(=O)(Oc1cc(CSc2ccccn2)[nH]n1)c1ccc(F)cc1,26.2
5,O=c1cc(-c2ccccn2)[nH][nH]1,1380

# Next, values leading:
row,IC50 [µM],SMILES
1,152,O=S(=O)(Oc1cc(CSc2ccccn2)[nH]n1)c1ccccc1
2,115,O=S(=O)(Oc1cc(CSc2ccccn2)[nH]n1)c1ccc(Br)cc1
3,6.25,O=[N+]([O-])c1ccccc1S(=O)(=O)Oc1cc(CSc2ccccn2)[nH]n1
4,19.8,Cc1ccc(S(=O)(=O)Oc2cc(CSc3ccccn3)[nH]n2)cc1
